Assay results from article PMC5513091, “A novel Alzheimer’s disease drug candidate targeting inflammation and fatty acid metabolism” (Alzheimer's Research & Therapy, 2017).

System: plasma metabolites
Assay: Metabolomic analysis of plasma
Format: in vivo, mice
Conditions: WT control mice fed CAD-31 200 ppm 3 months vs control
Protocol: Metabolomic analyses were conducted at Metabolon (Durham, NC, USA) as described previously. For statistical analyses and data display, any missing values were assumed to be below the limits of detection and imputed with the compound minimum (minimum value imputation). An estimate of the FDR (Q value) was calculated to take into account the multiple comparisons that normally occur in metabolomics-based studies, with Q < 0.05 used as an indication of high confidence in a result. The MetaboAnalyst tool was used to generate heat maps.

Cc1ccc(N(/N=C/c2cccc(OC(F)(F)F)c2)C(=O)C(F)(F)F)c(C)c1 [CAD-31]
1,2-dipalmitoyl-GPC (16:0/16:0) Fold Change C+31/C: 1.26 | 1-arachidonoyl-GPC (20:4n6)* Fold Change C+31/C: 1.04 | 1-myristoylglycerol (14:0) Fold Change C+31/C: 0.59 | 1-oleoylglycerol (18:1) Fold Change C+31/C: 0.64 | 1-palmitoyl-2-arachidonoyl-GPC (16:0/20:4n6) Fold Change C+31/C: 1.11 | 1-palmitoyl-2-stearoyl-GPC (16:0/18:0) Fold Change C+31/C: 1.1 | 1-stearoyl-GPE (18:0) Fold Change C+31/C: 1.01 | 2-palmitoylglycerol (16:0) Fold Change C+31/C: 0.79 | 3-acetylphenol sulfate Fold Change C+31/C: 0.21 | 3-ethylphenylsulfate Fold Change C+31/C: 2.27 | 3-hydroxy-3-methylglutarate Fold Change C+31/C: 0.99 | 3-hydroxybutyrate (BHBA) Fold Change C+31/C: 1.83 | 3-hydroxypyridine sulfate Fold Change C+31/C: 0.72 | 3-indoxyl sulfate Fold Change C+31/C: 0.63 | 4-hydroxyhippurate Fold Change C+31/C: 0.42 | 4-hydroxyphenylpyruvate Fold Change C+31/C: 1.65 | 5-hydroxyindoleacetate Fold Change C+31/C: 0.83 | 5-oxoproline Fold Change C+31/C: 1.27 | 7-ketodeoxycholate Fold Change C+31/C: 1.33 | 9,10-DiHOME Fold Change C+31/C: 0.65 | 10-heptadecenoate (17:1n7) Fold Change C+31/C: 0.51 | 10-nonadecenoate (19:1n9) Fold Change C+31/C: 0.6 | 10-undecenoate (11:1n1) Fold Change C+31/C: 0.75 | 15-methylpalmitate Fold Change C+31/C: 0.52 | 17-methylstearate Fold Change C+31/C: 0.62 | N2-acetyllysine Fold Change C+31/C: 0.71 | N-acetyl-3-methylhistidine* Fold Change C+31/C: 0.84 | N-acetylmethionine Fold Change C+31/C: 1.6 | N-acetylphenylalanine Fold Change C+31/C: 1.41 | N-acetylserine Fold Change C+31/C: 1.09 | N-carbamoylaspartate Fold Change C+31/C: 0.54 | N-delta-acetylornithine Fold Change C+31/C: 1.42 | N-palmitoyl-sphinganine (d18:0/16:0) Fold Change C+31/C: 1.08 | N-stearoyl-sphingosine (d18:1/18:0)* Fold Change C+31/C: 1.12 | acetylcarnitine Fold Change C+31/C: 1.65 | alpha-tocopherol Fold Change C+31/C: 1.05 | arabonate/xylonate Fold Change C+31/C: 0.83 | asparagine Fold Change C+31/C: 1.48 | beta-muricholate Fold Change C+31/C: 1.78 | caffeic acid sulfate Fold Change C+31/C: 2.12 | carnosine Fold Change C+31/C: 0.62 | chenodeoxycholate Fold Change C+31/C: 0.67 | choline phosphate Fold Change C+31/C: 1.53 | creatine Fold Change C+31/C: 1.23 | dihydroorotate Fold Change C+31/C: 2.98 | dopamine sulfate (2) Fold Change C+31/C: 0.94 | equol glucuronide Fold Change C+31/C: 0.18 | ergothioneine Fold Change C+31/C: 0.68 | erythritol Fold Change C+31/C: 1.06 | erythronate* Fold Change C+31/C: 1.02 | gamma-glutamylglutamate Fold Change C+31/C: 2.69 | gamma-glutamylglutamine Fold Change C+31/C: 1.94 | gamma-glutamylleucine Fold Change C+31/C: 1.86 | gamma-glutamylmethionine Fold Change C+31/C: 2.24 | gamma-glutamylphenylalanine Fold Change C+31/C: 1.84 | gamma-glutamylthreonine Fold Change C+31/C: 2.07 | gamma-glutamyltryptophan Fold Change C+31/C: 1.81 | gamma-glutamyltyrosine Fold Change C+31/C: 2.33 | glucuronate Fold Change C+31/C: 1.04 | glutamate Fold Change C+31/C: 1.71 | glutathione, oxidized (GSSG) Fold Change C+31/C: 2.09 | glycosyl-N-palmitoyl-sphingosine (d18:1/16:0) Fold Change C+31/C: 1.25 | glycosyl-N-stearoyl-sphingosine (d18:1/18:0) Fold Change C+31/C: 0.76 | gulonate* Fold Change C+31/C: 1.01 | hexanoylglycine Fold Change C+31/C: 2.77 | indoleacetylglycine Fold Change C+31/C: 0.57 | isobutyrylcarnitine Fold Change C+31/C: 5.46 | linoleate (18:2n6) Fold Change C+31/C: 0.67 | margarate (17:0) Fold Change C+31/C: 0.6 | methionine sulfoxide Fold Change C+31/C: 1.52 | methylmalonate (MMA) Fold Change C+31/C: 0.87 | o-cresol sulfate Fold Change C+31/C: 0.93 | oleoylcarnitine Fold Change C+31/C: 1.42 | palmitoleoylcarnitine* Fold Change C+31/C: 1.81 | palmitoyl dihydrosphingomyelin (d18:0/16:0)* Fold Change C+31/C: 1.09 | palmitoyl sphingomyelin (d18:1/16:0) Fold Change C+31/C: 1.05 | palmitoyl-palmitoyl-glycerol (16:0/16:0) [1]* Fold Change C+31/C: 0.51 | pentadecanoate (15:0) Fold Change C+31/C: 0.71 | phenol sulfate Fold Change C+31/C: 0.59 | phenylpropionylglycine Fold Change C+31/C: 3.88 | phosphoethanolamine Fold Change C+31/C: 1.64 | pyridoxal Fold Change C+31/C: 1.54 | pyridoxate Fold Change C+31/C: 1.33 | pyruvate Fold Change C+31/C: 1.2 | ribonate Fold Change C+31/C: 1.07 | sphinganine-1-phosphate Fold Change C+31/C: 2.52 | sphingosine Fold Change C+31/C: 1.14 | stearidonate (18:4n3) Fold Change C+31/C: 0.65 | suberate (octanedioate) Fold Change C+31/C: 1.17 | sucrose Fold Change C+31/C: 2.7 | tartronate (hydroxymalonate) Fold Change C+31/C: 1.47 | taurine Fold Change C+31/C: 1.26 | threonine Fold Change C+31/C: 1.42 | tryptophan Fold Change C+31/C: 1.12 | ursodeoxycholate Fold Change C+31/C: 0.49
